Converted amounts (≈) assume the structure as drawn. The source made the active and inactive calls. The rule behind the calls is not given here.
Tests used:
Phytophthora capsici [1] = test: Inhibition of intact mycelial respiration of Phytophthora capsici at 10 ug/mL; assay type: functional
Phytophthora capsici [2] = test: Inhibition of intact mycelial respiration of Phytophthora capsici assessed as superpose rate of oxygen consumption at 10 ug/mL in presence of sodium phosphate; assay type: functional; parameters: scale not given: the % may be the effect or the level left
Phytophthora capsici [3] = test: Inhibition of intact mycelial respiration of Phytophthora capsici assessed as superpose rate of oxygen consumption at 10 ug/mL in presence of malonic acid; assay type: functional; parameters: scale not given: the % may be the effect or the level left
Phytophthora capsici [4] = test: Inhibition of intact mycelial respiration of Phytophthora capsici at 10 ug/mL in presence of sodium phosphate; assay type: functional
Phytophthora capsici [5] = test: Inhibition of intact mycelial respiration of Phytophthora capsici assessed as superpose rate of oxygen consumption at 10 ug/mL in presence of iodoacetic acid; assay type: functional; parameters: scale not given: the % may be the effect or the level left
Phytophthora capsici [6] = test: Inhibition of intact mycelial respiration of Phytophthora capsici at 10 ug/mL in presence of iodoacetic acid; assay type: functional
Phytophthora capsici [7] = test: Inhibition of intact mycelial respiration of Phytophthora capsici at 10 ug/mL in presence of malonic acid; assay type: functional
Phytophthora capsici [8] = test: Inhibition of intact mycelial respiration of Phytophthora capsici assessed as superpose rate of oxygen consumption at 100 ug/mL in presence of malonic acid; assay type: functional; parameters: scale not given: the % may be the effect or the level left
Phytophthora capsici [9] = test: Inhibition of intact mycelial respiration of Phytophthora capsici at 100 ug/mL in presence of malonic acid; assay type: functional
Phytophthora capsici [10] = test: Inhibition of intact mycelial respiration of Phytophthora capsici at 100 ug/mL in presence of iodoacetic acid; assay type: functional
Phytophthora capsici [11] = test: Inhibition of intact mycelial respiration of Phytophthora capsici assessed as superpose rate of oxygen consumption at 100 ug/mL in presence of sodium phosphate; assay type: functional; parameters: scale not given: the % may be the effect or the level left
Phytophthora capsici [12] = test: Inhibition of intact mycelial respiration of Phytophthora capsici at 100 ug/mL; assay type: functional
Phytophthora capsici [13] = test: Inhibition of intact mycelial respiration of Phytophthora capsici at 100 ug/mL in presence of sodium phosphate; assay type: functional
Phytophthora capsici [14] = test: Inhibition of intact mycelial respiration of Phytophthora capsici assessed as superpose rate of oxygen consumption at 100 ug/mL in presence of iodoacetic acid; assay type: functional; parameters: scale not given: the % may be the effect or the level left
Phytophthora capsici [15] = test: Induction of morphological changes in Phytophthora capsici assessed as increase in mycelial ramifications at 10 ug/mL by scanning electron microscopy; assay type: functional, organism-based
Phytophthora capsici [16] = test: Induction of morphological changes in Phytophthora capsici assessed as distortion of vacuoles and vesicles in dense bodies at 10 ug/mL by transmission electron microscopy; assay type: functional, organism-based
Phytophthora capsici [17] = test: Inhibition of cytospore germination of Phytophthora capsici at 1 ug/mL after 24 hr; assay type: functional
Phytophthora capsici [18] = test: Inhibition of cytospore germination of Phytophthora capsici at 0.5 ug/mL after 24 hr; assay type: functional
Phytophthora capsici [19] = test: Inhibition of cytospore germination of Phytophthora capsici at 2 ug/mL after 24 hr; assay type: functional
Phytophthora capsici [20] = test: Induction of morphological changes in Phytophthora capsici assessed as induction of distortion of cell wall at 10 ug/mL by transmission electron microscopy; assay type: functional, organism-based
Phytophthora capsici [21] = test: Inhibition of mycelial radial growth of Phytophthora capsici incubated at 25 degC for 5 days; assay type: functional, organism-based; conditions: 120 h
Phytophthora capsici [22] = test: Inhibition of cytospore germination of Phytophthora capsici at 0.2 ug/mL after 24 hr; assay type: functional
Phytophthora capsici [23] = test: Inhibition of zoospore release of Phytophthora capsici at 12 ug/mL; assay type: functional
Phytophthora capsici [24] = test: Inhibition of mycelial radial growth of Phytophthora capsici at 2 ug/mL incubated at 25 degC for 5 days; assay type: functional; conditions: 120 h
Phytophthora capsici [25] = test: Inhibition of sporangia formation of Phytophthora capsici at 2 ug/mL treated 240 min after sporangia incubation followed by compound exposure for 60 min by light microscopy; assay type: functional
Phytophthora capsici [26] = test: Inhibition of zoospore release of Phytophthora capsici at 6 ug/mL; assay type: functional
Phytophthora capsici [27] = test: Inhibition of mycelial radial growth of Phytophthora capsici at 5 ug/mL incubated at 25 degC for 5 days; assay type: functional; conditions: 120 h
Phytophthora capsici [28] = test: Induction of morphological changes in Phytophthora capsici assessed as reduction in number of vesicles at 5 ug/mL by transmission electron microscopy; assay type: functional, organism-based
Phytophthora capsici [29] = test: Inhibition of mycelial radial growth of Phytophthora capsici at 5 ug/mL incubated at 25 degC for 5 days in presence of 1 ug/mL ATP; assay type: functional
Phytophthora capsici [30] = test: Induction of morphological changes in Phytophthora capsici assessed as increase in mycelial colony density at 5 ug/mL by scanning electron microscopy; assay type: functional, organism-based
Phytophthora capsici [31] = test: Inhibition of zoospore release of Phytophthora capsici at 100 ug/mL; assay type: functional
Phytophthora capsici [32] = test: Induction of morphological changes in Phytophthora capsici assessed as induction of multilayered cell wall development at 10 ug/mL by transmission electron microscopy; assay type: functional, organism-based
Phytophthora capsici [33] = test: Inhibition of mycelial radial growth of Phytophthora capsici at 5 ug/mL incubated at 25 degC for 5 days in presence of 5 ug/mL ATP; assay type: functional; conditions: 120 h
Phytophthora capsici [34] = test: Inhibition of zoospore release of Phytophthora capsici at 50 ug/mL; assay type: functional
Phytophthora capsici [35] = test: Inhibition of sporangia formation of Phytophthora capsici at 0.1 ug/mL treated 240 min after sporangia incubation followed by compound exposure for 60 min by light microscopy; assay type: functional
Phytophthora capsici [36] = test: Inhibition of mycelial radial growth of Phytophthora capsici at 1 ug/mL incubated at 25 degC for 5 days; assay type: functional; conditions: 120 h
Phytophthora capsici [37] = test: Induction of morphological changes in Phytophthora capsici assessed as increase in dense bodies at 10 ug/mL by transmission electron microscopy; assay type: functional, organism-based
Phytophthora capsici [38] = test: Inhibition of cytospore germination of Phytophthora capsici after 24 hr; assay type: functional, organism-based
Phytophthora capsici [39] = test: Inhibition of mycelial radial growth of Phytophthora capsici at 0.6 ug/mL incubated at 25 degC for 5 days; assay type: functional; conditions: 120 h
Phytophthora capsici [40] = test: Induction of morphological changes in Phytophthora capsici assessed as increase in abnormal mycelial configurations at 10 ug/mL by scanning electron microscopy; assay type: functional, organism-based
Phytophthora capsici [41] = test: Inhibition of sporangia formation of Phytophthora capsici at 1 ug/mL treated 240 min after sporangia incubation followed by compound exposure for 60 min by light microscopy; assay type: functional
Phytophthora capsici [42] = test: Inhibition of zoospore release of Phytophthora capsici; assay type: functional, organism-based
Phytophthora capsici [43] = test: Induction of morphological changes in Phytophthora capsici assessed as increase in mycelial colony density at 10 ug/mL by scanning electron microscopy; assay type: functional, organism-based
Phytophthora capsici [44] = test: Inhibition of sporangia formation of Phytophthora capsici at 0.5 ug/mL treated 240 min after sporangia incubation followed by compound exposure for 60 min by light microscopy; assay type: functional
Phytophthora capsici [45] = test: Induction of morphological changes in Phytophthora capsici assessed as abnormal mycelial growth at 10 ug/mL by scanning electron microscopy; assay type: functional, organism-based
Phytophthora capsici [46] = test: Induction of morphological changes in Phytophthora capsici assessed as increase in extensive cell wall proliferation at 5 ug/mL by transmission electron microscopy; assay type: functional, organism-based
Phytophthora capsici [47] = test: Inhibition of cytospore germination of Phytophthora capsici at 0.1 ug/mL after 24 hr; assay type: functional
Phytophthora capsici [48] = test: Inhibition of sporangia formation of Phytophthora capsici at 0.2 ug/mL treated 240 min after sporangia incubation followed by compound exposure for 60 min by light microscopy; assay type: functional
Phytophthora capsici [49] = test: Inhibition of zoospore release of Phytophthora capsici at 25 ug/mL; assay type: functional
Phytophthora capsici [50] = test: Inhibition of sporangia formation of Phytophthora capsici treated 240 min after sporangia incubation followed by compound exposure for 60 min by light microscopy; assay type: functional, organism-based
Phytophthora capsici [51] = test: Inhibition of mycelial radial growth of Phytophthora capsici at 10 ug/mL incubated at 25 degC for 5 days in absence of 5 ug/mL ATP; assay type: functional
Phytophthora capsici [52] = test: Induction of morphological changes in Phytophthora capsici assessed as abnormal mycelial growth at 5 ug/mL by scanning electron microscopy; assay type: functional, organism-based
Phytophthora capsici [53] = test: Inhibition of mycelial radial growth of Phytophthora capsici at 10 ug/mL incubated at 25 degC for 5 days in presence of 5 ug/mL ATP; assay type: functional
Phytophthora capsici [54] = test: Inhibition of mycelial radial growth of Phytophthora capsici at 10 ug/mL incubated at 25 degC for 5 days in presence of 1 ug/mL ATP; assay type: functional

## CO/C=C(/C(=O)OC)c1ccccc1Oc1cc(Oc2ccccc2C#N)ncn1 [AZOXYSTROBIN]
Phytophthora capsici [1]
  inhibition at 10 µg/mL: 71.7%
Phytophthora capsici [2]
  Activity: 51.36%
Phytophthora capsici [3]
  Activity: 9.02%
Phytophthora capsici [4]
  inhibition at 10 µg/mL: 86.2%
Phytophthora capsici [5]
  Activity: 53.27%
Phytophthora capsici [6]
  inhibition at 10 µg/mL: 86.8%
Phytophthora capsici [7]
  inhibition at 10 µg/mL: 74.2%

## COc1ccc(C(=CC(=O)N2CCOCC2)c2ccc(Cl)cc2)cc1OC [DIMETHOMORPH]
Phytophthora capsici [8]
  Activity: 49.91%
Phytophthora capsici [9]
  inhibition at 100 µg/mL: 59.6%
Phytophthora capsici [10]
  inhibition at 100 µg/mL: 61.1%
Phytophthora capsici [11]
  Activity: 44.06%
Phytophthora capsici [12]
  inhibition at 100 µg/mL: 19.4%
Phytophthora capsici [13]
  inhibition at 100 µg/mL: 55%
Phytophthora capsici [14]
  Activity: 51.62%

## CC(C)(C)c1ccc(/C(=C/C(=O)N2CCOCC2)c2ccnc(Cl)c2)cc1 [PYRIMORPH]
Phytophthora capsici [8]
  Activity: 18.31%
Phytophthora capsici [15]
  Activity: Active
Phytophthora capsici [16]
  Activity: Active
Phytophthora capsici [17]
  inhibition at 1 µg/mL: 71%
Phytophthora capsici [18]
  inhibition at 0.5 µg/mL: 68%
Phytophthora capsici [19]
  inhibition at 2 µg/mL: 84%
Phytophthora capsici [20]
  Activity: Active
Phytophthora capsici [21]
  EC50: 1.84 µg/mL (≈ 4.78 µM)
  EC90: 5.71 µg/mL (≈ 14.8 µM)
Phytophthora capsici [22]
  inhibition at 0.2 µg/mL: 56%
Phytophthora capsici [23]
  inhibition at 12 µg/mL: 65%
Phytophthora capsici [24]
  inhibition at 2 µg/mL: 57%
Phytophthora capsici [25]
  inhibition at 2 µg/mL: 85%
Phytophthora capsici [26]
  inhibition at 6 µg/mL: 58%
Phytophthora capsici [27]
  inhibition at 5 µg/mL: 81%
Phytophthora capsici [28]
  Activity: Active
Phytophthora capsici [29]
  inhibition (INH): 75%
Phytophthora capsici [30]
  Activity: Active
Phytophthora capsici [31]
  inhibition at 100 µg/mL: 95%
Phytophthora capsici [32]
  Activity: Active
Phytophthora capsici [33]
  inhibition at 5 µg/mL: 72%
Phytophthora capsici [34]
  inhibition at 50 µg/mL: 94%
Phytophthora capsici [9]
  inhibition at 100 µg/mL: 51.8%
Phytophthora capsici [35]
  inhibition at 0.1 µg/mL: 52%
Phytophthora capsici [36]
  inhibition at 1 µg/mL: 28%
Phytophthora capsici [37]
  Activity: Active
Phytophthora capsici [38]
  EC50: 0.09 µg/mL (≈ 0.234 µM)
  EC90: 8.16 µg/mL (≈ 21.2 µM)
Phytophthora capsici [10]
  inhibition at 100 µg/mL: 60.2%
Phytophthora capsici [39]
  inhibition at 0.6 µg/mL: 9%
Phytophthora capsici [40]
  Activity: Active
Phytophthora capsici [41]
  inhibition at 1 µg/mL: 75%
Phytophthora capsici [42]
  EC50: 4.92 µg/mL (≈ 12.8 µM)
  EC90: 45.7 µg/mL (≈ 119 µM)
Phytophthora capsici [11]
  Activity: 5.22%
Phytophthora capsici [43]
  Activity: Active
Phytophthora capsici [44]
  inhibition at 0.5 µg/mL: 66%
Phytophthora capsici [45]
  Activity: Active
Phytophthora capsici [12]
  inhibition at 100 µg/mL: 41%
Phytophthora capsici [46]
  Activity: Active
Phytophthora capsici [47]
  inhibition at 0.1 µg/mL: 54%
Phytophthora capsici [48]
  inhibition at 0.2 µg/mL: 57%
Phytophthora capsici [49]
  inhibition at 25 µg/mL: 80%
Phytophthora capsici [50]
  EC50: 0.17 µg/mL (≈ 0.442 µM)
  EC90: 3.21 µg/mL (≈ 8.34 µM)
Phytophthora capsici [51]
  inhibition (INH): 98%
Phytophthora capsici [52]
  Activity: Active
Phytophthora capsici [13]
  inhibition at 100 µg/mL: 44%
Phytophthora capsici [53]
  inhibition (INH): 77%
Phytophthora capsici [14]
  Activity: 32.61%
Phytophthora capsici [54]
  inhibition (INH): 78.1%

Reference: ChEMBL document CHEMBL3044598, “Study of inhibitory effects and action mechanism of the novel fungicide pyrimorph against Phytophthora capsici” (J Agric Food Chem, 2010)
